Assay results: patent US20200397853A1, “TREATMENT OF A HEART DISEASE” (Yeda Research and Development Co. Ltd., priority 2018, published 2020)

Tests used:
Type in all cases: in vivo, mice
[1] = test system: mouse model of MI by LAD ligation; experiment: Heart section scar assessment (Masson-Trichrome) after MI
Experimental: (§1) Myocardial infarction in adult mice was performed as follows: mice were sedated with isoflurane (Abbott Laboratories) and following tracheal intubation, were artificially ventilated. Lateral thoracotomy at the third intercostal space was performed by blunt dissection of the intercostal muscles following skin incision. Following ligation of the left anterior descending coronary artery, 2 mg/animal/day of
(§2) GA (batch #164F0105; 24992916) or PBS were injected according to the experimental protocol (described in the Results). Following treatment, thoracic wall incisions were sutured with 6.0 non-absorbable silk sutures, and the skin wound closed using a skin adhesive. Mice were then warmed for several minutes until recovery.
Mouse heart tissues were fixed in 4% paraformaldehyde (PFA) and sectioned. For analysis of cardiac regeneration, following myocardial infarction procedure, paraffin sections were cut through the entire ventricle from apex to base into serial sections with intervals of 0.3 mm. Paraffin sections were cut frontally to include base to apex in each section. […] Scar size was quantified in the section containing the papillary muscle region using ImageJ software based on Masson's trichrome staining. Scar size was calculated as scar size relative to total section size.

[2] = test system: mouse model of MI by LAD ligation; experiment: Echocardiography of heart function after myocardial infarction (LAD ligation)
Experimental: as §1, §2
Heart function was evaluated by transthoracic echocardiography performed on sedated mice (isoflurane, Abbott Laboratories) using a Vevo 3100 VisualSonics device.
Mice were divided to the following experimental groups: […]
4. Long GA treatment—performing MI followed by GA (2 mg/animal/day) given i.p. from day 0 up to day 14 or until first animal dies. N=5.
Echo measurements were performed at baseline (day 0), day 2, day 14 and day 35 post MI. Histology analysis was performed post mortem.
Short GA treatment—performing MI followed by GA (2 mg/animal/day) administered i.p. from day 0 up to day 14. N=10. […]
In the clinic, MI patients currently reach medical care in a matter of several hours. To find out the relevance and efficacy of delayed administration of GA, the present inventors created MI by LAD ligation and treated animals at the day of injury, 24 or 48 hours post MI.

infarcted hearts [3] = experiment: Multiplex cytokine ELISA of infarcted hearts
Experimental: Myocardial infarction in adult mice was performed as follows: mice were sedated with isoflurane (Abbott Laboratories) and following tracheal intubation, were artificially ventilated. Lateral thoracotomy at the third intercostal space was performed by blunt dissection of the intercostal muscles following skin incision. Following ligation of the left anterior descending coronary artery, 2 mg/animal/day of GA (batch #164F0105; 24992916) or PBS were injected according to the experimental protocol (described in the Results). Following treatment, thoracic wall incisions were sutured with 6.0 non-absorbable silk sutures, and the skin wound closed using a skin adhesive. Mice were then warmed for several minutes until recovery. For native protein extraction, hearts were minced using a mortar and pestle under liquid nitrogen, and the resulting powder was further homogenized using rotor—stator homogenizer with a native extraction buffer (0.5% triton in PBS with protease inhibitor cocktail). Resulting extracts were equilibrated for protein concentration, and subjected to mouse cytokine 16-plex ELISA (#110949MS, Quansys Biosciences, USA) according to manufacturer instructions. To broaden the understanding of the molecular effectors influenced by GA treatment, the cytokine milieu of the GA treated infarcted hearts was analyzed. For that, infarcted hearts were harvested at 24 h, 96 h and 14 days post MI. Native protein lysates were prepared and subjected to multiplex cytokine ELISA. At 24 hr post MI, both IL-6 and IL-10 levels were increased (FIG. 6A). […] Importantly, the levels of IL-6 as well as those of other pro-inflammatory cytokines in GA treated hearts were reduced 14 days post MI (FIG. 6C). These findings might underscore the importance of regulating a transient expression of pro-inflammatory cytokines occurring in a pro-regenerative scenario, similar to what was detected in the GA treated hearts. Another cytokine that was elevated after GA treatment was IL-4 (FIG. 6B). Both IL-10 and IL-4 are considered as anti-inflammatory cytokines that induce Th-2 differentiation, a cell population previously shown to be affected by GA (40-42). […] This chemokine was previously shown to induce IL-6 expression and to have beneficial effect on cardiac remodeling post MI^29. […] Taken together, the differential expression of cytokines in the GA treated infarcted heart might reveal the molecular mechanism that allows GA to modulate the immune response, supporting cardiac regeneration post MI.

infarcted hearts [4] = experiment: FACS analysis of neutrophils and macrophages in infarcted hearts
Experimental: Myocardial infarction in adult mice was performed as follows: mice were sedated with isoflurane (Abbott Laboratories) and following tracheal intubation, were artificially ventilated. Lateral thoracotomy at the third intercostal space was performed by blunt dissection of the intercostal muscles following skin incision. Following ligation of the left anterior descending coronary artery, 2 mg/animal/day of GA (batch #164F0105; 24992916) or PBS were injected according to the experimental protocol (described in the Results). Following treatment, thoracic wall incisions were sutured with 6.0 non-absorbable silk sutures, and the skin wound closed using a skin adhesive. Mice were then warmed for several minutes until recovery. Single cell suspensions of hearts harvested at different time point post MI were generated immediately before analysis by flow cytometry, as previously described^21. Briefly, single hearts were minced and digested in collagenase II/Dispase solution in PBS with 1 mM CaCl2 (2 mg/ml collagenase II, 1.2 U/ml Dispase) for 3 rounds of 15 minutes at 37° C., followed by mechanical separation by pippetation. Digested samples were passed through a 40-μm filter, washed, and suspended in FACS buffer (PBS 0.5% BSA, 2 mM EDTA) for staining. Samples were stained with antibodies from Miltenyi biotec:CD45-Viogreen, CD11b-PE, Ly6G-Vioblue, Ly6C-FITC, F4/80-APC, CCR2-APC-Vio770, MHCII-PE-Vio770. 7-AAD was used as a viability marker. Staining and sample analysis were all performed by standard procedure on a LSR-II FACS machine. GA has an established influence on the immune response, especially the T-helper 2 (Th2) lymphocyte population^22-24. To investigate the molecular mechanisms of GA effects, the present inventors sought out to characterize the immune response of infarcted hearts after GA treatment. First, examining the changes in relevant immune populations. For that, infarcted hearts were analyzed by FACS using markers for neutrophils and macrophages. To follow the dynamics of the immune response after MI, injured hearts at 24 hr, 96 hr and 14 days post MI were harvested. […] The effect of GA diminishes after 96 hr, with the expected reduction in neutrophils. […] This trend was recently shown to promote cardiac regeneration^25, and therefore might explain GA regenerative effect.

Stat3 = experiment: Western-blot analysis of pStat3 in hearts post MI; conditions: 4 days after injury (FIG. 7)
Experimental: as §1, §2
Western blotting was performed with the SDS-PAGE Electrophoresis System. Sample extracts were prepared and transferred to PVDF membranes. The following primary antibodies were used: anti-Gapdh (Sigma, PLA0125, 1:3000), anti-pStat3 (1:1000) Horseradish peroxidase anti-mouse, anti-rabbit or anti-goat (Sigma-Aldrich, 1:2000) were used as a secondary antibody.

glatiramer acetate [GA]
cardiac scarring (Masson-Trichrome stained area relative to total area) ([1]; 35 days after MI, larger group, vs PBS (FIG. 2C)): improved significantly
scar area of the 3 representative treated mice ([1]; 35 d post MI, Masson-Trichrome, vs PBS (FIG. 3A)): smaller scar area
fractional shortening (FS), reduction from baseline ([2]; 35 d after MI, GA i.p. 14 d vs PBS (FIG. 1C)): smaller reduction
cardiac function (EF and FS) ([2]; 35 days after MI, larger group, all animals treated by the protocol, vs PBS (FIGS. 2A, B)): improved significantly
EF of the 3 representative treated mice ([2]; 35 d post MI, vs PBS (FIG. 3B)): improved EF
Ejection Fraction (EF) ([2]; 35 d post injury, GA 2 mg/animal/day i.p. day 0 to 14, vs PBS (FIG. 1A)): clear beneficial effect
cardiac function (EF, FS), treatment delayed 24 hours ([2]; treatment started 24 hours post MI, similar levels to treatment at the day of injury (FIGS. 4A-B)): improved cardiac function
cardiac function (EF, FS), treatment delayed 48 hours ([2]; treatment started 48 hours post MI, similar levels to treatment at the day of injury (FIGS. 4A-B)): improved cardiac function
IL-6 level (infarcted hearts [3]; 24 hr post MI (FIG. 6A)): increased
IL-10 level (infarcted hearts [3]; 24 hr post MI (FIG. 6A)): increased
levels of Monocyte Chemoattractant Protein-1 (MCP-1) (infarcted hearts [3]; 96 hr post MI (FIG. 6B)): significant enhancement
IL-6 level (infarcted hearts [3]; 14 days post MI (FIG. 6C)): reduced
levels of other pro-inflammatory cytokines (infarcted hearts [3]; 14 days post MI (FIG. 6C)): reduced
IL-4 level (infarcted hearts [3]; FIG. 6B): elevated
fraction of neutrophils in the infarcted hearts (infarcted hearts [4]; 24 h post MI, vs PBS (FIGS. 5A, B)): decreased
macrophage fraction of immune cells (infarcted hearts [4]; 24 hr post MI, vs PBS (FIGS. 5C, D)): increase
effect on macrophage fraction (infarcted hearts [4]; after 96 hr post MI): diminished
effect on neutrophils (infarcted hearts [4]; after 96 hr post MI): diminishes
levels of phosphorylated Stat3 (pStat3) (Stat3): increased levels
levels of phosphorylated Stat3 (pStat3) (Stat3; listed as Cop): upregulation
